Reference: patent US20250049026A1, “BIOCIDAL COMPOSITIONS WITH HYDRONIUM ION SOURCES FOR BIOFILM CONTROL” (ECOLAB USA INC., priority 2020, published 2025)
Marks after values point to notes of the source that are not given here.

Tested on: Pseudomonas aeruginosa (ATCC 15442) biofilm
Experiment: Efficacy against biofilm, CDC Biofilm Reactor and Single Tube Method (ASTM E3161-18, ASTM E2871-19)
Format: cell-based
Conditions: for Average Log Reduction: 10 min exposure
Experimental: The efficacy against biofilm was performed as described in the standard test methods ASTM E3161-18 (Standard Practice for Preparing a Pseudomonas aeruginosa or Staphylococcus aureus Biofilm using the CDC Biofilm Reactor) and ASTM E2871-19 (Standard Test Method for Determining Disinfectant Efficacy Against Biofilm Grown in the CDC Biofilm Reactor Using the Single Tube Method). A Pseudomonas aeruginosa (ATCC 15442) biofilm was the organism used for determination of composition efficacy against biofilm on hard non-porous surfaces. Biofilm for composition efficacy was generated as outlined in ASTM E3161-18. A 10 uL sample of a thawed frozen stock culture was used to inoculate 10 mL of sterile 100 mg/L Tryptic Soy Broth (TSB) which was then allowed to incubate for 24±2 hours at 35±2° C. Following growth, a 1 mL sample of this initial culture was used to inoculate a CDC Biofilm Reactor containing borosilicate glass coupons and 500 mL of sterile 300 mg/L TSB. The reactor system was allowed to incubate at room temperature (i.e. 21±2° C.) for 24±2 hours with a baffle rotational speed of 125±5 RPM under Batch Phase as directed in ASTM E3161-18. Following Batch Phase growth, Continuous Flow Phase growth was initiated by continuous pumping of 100 mg/L TSB into the reactor system at an appropriate flow rate to ensure the test organism residence time of 30±2 minutes. The reactor system was allowed to incubate at room temperature (i.e. 21±2° C.) for 24±2 hours with a baffle rotational speed of 125±5 RPM under Continuous Flow Phase as directed in ASTM E3161-18. Following completion of the growth, biofilm test carriers were removed from the CDC Biofilm Reactor, rinsed in sterile buffer to remove any non-adhered cells and individual carriers were placed into sterile 50 mL conical tubes for composition treatment. Determination of compositional efficacy against Pseudomonas aeruginosa biofilm was performed as outlined in ASTM E2871-19. A 4 mL sample of each composition (or sterile buffer for control carriers) was pipetted into each corresponding tube containing a test carrier. Triplicate test carriers were analyzed per composition or control. Test and control carriers were allowed to expose for 10 minutes at room temperature (i.e. 21±2° C.). Following exposure, each carrier was appropriately neutralized with 36 mL of Neutralizing Broth. Neutralized carriers were vortex mixed and sonicated to remove/disaggregate the biofilm from the carrier surface as outlined in ASTM E2871-19. Disaggregated biofilm samples were serially diluted in sterile buffer and spread plated onto appropriate agar for determination of plate counts. Log reductions for each composition were determined by comparing the calculated average Log10 from the set of recovered control carriers to the calculated average Log10 from each set of recovered composition carriers. In addition to carrier control determination, an appropriate Neutralization Confirmation Control was performed for each composition to ensure that the Neutralizing Broth chosen appropriately neutralized the test solution.
The various combinations of biocides and hydronium ion (all from sulfuric acid) were evaluated at the use concentration (ppm biocide) pH and moles of hydronium in the use concentration as set forth in Table 2.

[1] = active 100 ppm, pH 2.15, hydronium ion 0.0071 M (sulfuric acid)
[2] = active 100 ppm, pH 2.50, hydronium ion 0.0032 M (sulfuric acid)
[3] = active 100 ppm, pH 3.00, hydronium ion 0.001 M (sulfuric acid)

Q: With `CCCCCCCC(=O)O` [Octanoic acid] as the molecule, how does the “Average Log Reduction” value [1] read?
A: Its value is 4.28 log.

Q: And the “Average Log Reduction” value [2]?
A: The value was 7.59 log.

Q: What about the “Average Log Reduction” value [3] of the same molecule?
A: Its value is 2.19 log.

Q: What about the “Average Log Reduction” value (active 100 ppm, pH 6.43, hydronium ion 0.0000 M) of the same molecule?
A: The value was 2.07 log.

Q: What about the “Average Log Reduction” value (active 200 ppm, pH 6.43, hydronium ion 0.0000 M) of the same molecule?
A: The value was 2.15 log.

Q: What about the “Average Log Reduction” value (active 300 ppm, pH 6.43, hydronium ion 0.0000 M) of the same molecule?
A: Its value is 2.15 log.

Q: What about the “Average Log Reduction” value (active 400 ppm, pH 6.43, hydronium ion 0.0000 M) of the same molecule?
A: Its value is 2.15 log.

Q: For `CC(=O)OO` [POAA, Peroxyacetic acid], which micro efficacy (220 ppm, without the hydronium ion) is on record?
A: The micro efficacy was “fails to provide sufficient micro efficacy”.

Q: And the “Average Log Reduction” value (active 110 ppm, pH 2.29, hydronium ion 0.0051 M (sulfuric acid))?
A: Its value is 5.94 log.

Q: What about the “Average Log Reduction” value (active 220 ppm, pH 2.00, hydronium ion 0.01 M (sulfuric acid)) of the same molecule?
A: The value was 4.45* log.

Q: And the “Average Log Reduction” value (active 220 ppm, pH 2.29, hydronium ion 0.0051 M (sulfuric acid))?
A: Its value is 8.70 log.

Q: And the “Average Log Reduction” value (active 220 ppm, pH 2.30, hydronium ion 0.0050 M (sulfuric acid))?
A: The value was 2.42 log.

Q: And the “Average Log Reduction” value (active 220 ppm, pH 2.45, hydronium ion 0.0035 M (sulfuric acid))?
A: The value was 2.11 log.

Q: What about the “Average Log Reduction” value (active 220 ppm, pH 2.50, hydronium ion 0.0032 M (sulfuric acid)) of the same molecule?
A: The value was 2.15 log.

Q: And the “Average Log Reduction” value (active 220 ppm, pH 2.98, hydronium ion 0.001 M (sulfuric acid))?
A: The value was 2.15 log.

Q: What about the “Average Log Reduction” value (active 220 ppm, pH 3.46, hydronium ion 0.00035 M (sulfuric acid)) of the same molecule?
A: Its value is 2.15 log.

Q: And the “Average Log Reduction” value (active 220 ppm, pH 4.20, hydronium ion 0.000063 M [No hydronium ion source], room temperature)?
A: Its value is 2.15 log.

Q: What about the “Average Log Reduction” value (active 320 ppm, pH 3.45, hydronium ion 0.00035 M (sulfuric acid)) of the same molecule?
A: The value was 2.41 log.

Q: What about the “Average Log Reduction” value (active 420 ppm, pH 3.46, hydronium ion 0.00035 M (sulfuric acid)) of the same molecule?
A: The value was 2.41 log.

Q: What about the “Average Log Reduction” value (active 520 ppm, pH 3.44, hydronium ion 0.00035 M (sulfuric acid)) of the same molecule?
A: Its value is 2.41 log.

Q: Which “Average Log Reduction” value [1] does the source give for `CCCCCCCC(=O)OO` [POOA, Peroxyoctanoic acid] here?
A: The value was 8.43 log.

Q: And the “Average Log Reduction” value [2]?
A: Its value is 7.24 log.

Q: And the “Average Log Reduction” value [3]?
A: The value was 2.19 log.

Q: What about the “Average Log Reduction” value (active 100 ppm, pH 5.45, hydronium ion 0.0000 M) of the same molecule?
A: Its value is 1.95 log.

Q: Which results are given for Linear alkylbenzene sulfonate [LAS]?
A: Average Log Reduction (active 1000 ppm, pH 2.15, hydronium ion 0.0071 M (sulfuric acid)): 5.74 log; Average Log Reduction (active 1000 ppm, pH 3.02, hydronium ion 0.00095 M (sulfuric acid)): 2.19 log; Average Log Reduction (active 1000 ppm, pH 7.48, hydronium ion 0.0000 M): 2.07 log; Average Log Reduction (active 2000 ppm, pH 7.48, hydronium ion 0.0000 M): 2.41 log; Average Log Reduction (active 3000 ppm, pH 7.46, hydronium ion 0.0000 M): 2.41 log; Average Log Reduction (active 4000 ppm, pH 7.48, hydronium ion 0.0000 M): 2.41 log
